Patent publication US20250092044A1, “Kinase Inhibitors” (Incyte Corporation, priority 2023, published 2025)

How the values were obtained:
CYP3A4 = CYP3A4 (Homo sapiens (Human), UniProt P08684); experiment: Time Dependent Inhibition (TDI) of CYP; format: in vitro ADME; settings: for TDI 3A4: Kobs, 30 min pre-incubation with NADPH; for TDI 3A4 / Kobs: human liver microsomes, 10 μM; for CYP function remaining / Kobs: time dependent inhibition of CYPs; for CYP function remaining: after pre-incubation with NADPH
Chain of CYP3A4 (P08684 whole entry): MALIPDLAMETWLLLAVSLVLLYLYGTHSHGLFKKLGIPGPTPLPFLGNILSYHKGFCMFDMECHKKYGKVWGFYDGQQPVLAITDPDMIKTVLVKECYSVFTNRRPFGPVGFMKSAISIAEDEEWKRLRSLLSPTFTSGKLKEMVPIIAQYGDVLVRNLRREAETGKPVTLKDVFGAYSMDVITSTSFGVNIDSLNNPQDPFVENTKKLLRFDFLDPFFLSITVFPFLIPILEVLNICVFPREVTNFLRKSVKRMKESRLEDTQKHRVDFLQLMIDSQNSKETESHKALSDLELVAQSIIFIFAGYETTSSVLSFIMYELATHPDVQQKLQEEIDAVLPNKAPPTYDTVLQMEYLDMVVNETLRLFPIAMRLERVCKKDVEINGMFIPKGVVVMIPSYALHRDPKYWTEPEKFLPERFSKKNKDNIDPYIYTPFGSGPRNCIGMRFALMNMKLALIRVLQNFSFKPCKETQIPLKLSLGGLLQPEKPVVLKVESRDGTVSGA
Excerpt: Inhibition of P450 enzymes can be classified as either reversible or time-dependent inhibition (TDI). This in vitro assay is designed to detect an increase in CYP inhibition as a result of biotransformation and/or bioactivation (TDI). Potential mechanisms for this include the formation of a tight-binding, quasi-irreversible inhibitory metabolite complex or the inactivation of P450 enzymes by covalent adduct formation of metabolites. While this experiment employs a 10-fold dilution to diminish metabolite concentrations and therefore effects of reversible inhibition, it is possible (but not common) that a metabolite that is an extremely potent CYP inhibitor could result in a positive result.
The results are from a cocktail of CYP specific probe substrates at 4 times their Km concentrations for CYP2C9 (diclofenac), CYP2C19 (S-mephenytoin), CYP2D6 (bufuralol) and CYP3A4 (midazolam) using human liver microsomes (HLM). The HLMs were pre-incubated with test compound(s) at a concentration 10 μM for 30 min in the presence (+N) or absence (−N) of a NADPH regenerating system, diluted 10-fold, and incubated for 8 min in the presence of the substrate cocktail with the addition of a fresh aliquot of NADPH regenerating system. A calibration curve of metabolite standards was used to quantitatively measure the enzyme activity using LC-MS/MS. In addition, incubations with known time dependent inhibitors, tienilic aicd (CYP2C9), ticlopidine (CYP2C19), paroxetine (CYP2D6), and troleandomycin (CYP3A4), used as positive controls were pre-incubated 30 min with or without a NADPH regenerating system.
The percentage of control CYP2C9, CYP2C19, CYP2D6, and CYP3A4 activity remaining following pre-incubation of the compounds with NADPH is corrected for the corresponding control vehicle activity and then calculated based on 0 minutes as 100%. A linear regression plot of the natural log of % activity remaining versus time for each isozyme is used to calculate the slope. The −slope is equal to the rate of enzyme loss, or the Kobs. […] Examples 29-30 have Kobs from 0.005-0.02 indicating a medium to low potential for time dependent inhibition of CYPs corresponding to 70-90% CYP function remaining.

[1] = In Vivo Pharmacokinetics (cynomolgus monkey); set-up: species or system Cynomolgus monkeys; settings: both sexes, plasma
Description: Test compounds were administered to male Sprague Dawley rats or male and female Cynomolgus monkeys intravenously or via oral gavage. For intravenous (IV) dosing, test compounds were dosed at 1 mg/kg using a formulation of 10% dimethylacetamide (DMAC), 10% propylene glycol (PG) in acidified saline via IV bolus for rat or 10 min IV infusion for monkey. For oral (PO) dosing, test compounds were dosed at 3.0 mg/kg using 5% DMAC in 0.5% methylcellulose in citrate buffer (PH˜2.5). Blood samples were collected at predose and various time points up to 24 hours postdose. All blood samples were collected using EDTA as the anticoagulant and centrifuged to obtain plasma samples. The plasma concentrations of test compounds were determined by LC-MS/MS methods. The measured plasma concentrations were used to calculate PK parameters by standard noncompartmental methods using Phoenix® WinNonlin software program (version 8.0, Pharsight Corporation) or similar software. In rats and monkeys, cassette dosing of test compounds were conducted to obtain preliminary PK parameters. In vivo pharmacokinetic experiments with male beagle dogs may be performed under the conditions described above.

[2] = In Vivo Pharmacokinetics (mouse); settings: plasma, PO
[3] = PO 3.0 mg/kg, read-out: CYNO PO AUC

In the case of `[2H]C([2H])([2H])N(Cc1ccc(-c2[nH]c3ncc4c(c3c2-c2ccc3c(c2)COC3(C)C)n([C@@H]2CC[C@@H](NC(=O)OC)C2)c(=O)n4C([2H])([2H])[2H])cc1)C([2H])([2H])[2H]` [Example 29, Methyl ((1R,3R)-3-(7-(4-((bis(methyl-d3)amino)methyl)phenyl)-8-(1,1-dimethyl-1,3-dihydroisobenzofuran-5-yl)-3-(methyl-d3)-2-oxo-3,6-dihydroimidazo[4,5-d]pyrrolo[2,3-b]pyridin-1(2H)-yl)cyclopentyl)carbamate], the “TDI 3A4” value (CYP3A4) is reported as “⋄⋄ (>0.005 to ≤0.02)”.

For `[2H]C([2H])([2H])N(Cc1ccc(-c2[nH]c3ncc4c(c3c2-c2ccc(OCCOC)cc2)n([C@@H]2CC[C@@H](NC(=O)OC)C2)c(=O)n4C([2H])([2H])[2H])cc1)C([2H])([2H])[2H]` [Example 27, Methyl ((1R,3R)-3-(7-(4-((bis(methyl-d3)amino)methyl)phenyl)-8-(4-(2-methoxyethoxy)phenyl)-3-(methyl-d3)-2-oxo-3,6-dihydroimidazo[4,5-d]pyrrolo[2,3-b]pyridin-1(2H)-yl)cyclopentyl)carbamate], the “TDI 3A4” value (CYP3A4) was “⋄ (≤0.005)” and the AUC [1, 3] was greater than 1.5 µM·h.

In the case of `[2H]C([2H])([2H])N(Cc1ccc(-c2[nH]c3ncc4c(c3c2-c2ccc3c(c2)CC(C)(C)O3)n([C@@H]2CC[C@@H](NC(=O)OC)C2)c(=O)n4C([2H])([2H])[2H])cc1)C([2H])([2H])[2H]` [Example 25, Methyl ((1R,3R)-3-(7-(4-((bis(methyl-d3)amino)methyl)phenyl)-8-(2,2-dimethyl-2,3-dihydrobenzofuran-5-yl)-3-(methyl-d3)-2-oxo-3,6-dihydroimidazo[4,5-d]pyrrolo[2,3-b]pyridin-1(2H)-yl)cyclopentyl)carbamate], the “TDI 3A4” value (CYP3A4) is reported as “⋄ (≤0.005)” and the AUC ([1]; PO, 1 mg/kg) is reported as no more than 0.5 µM·h.

In the case of `COC(=O)N[C@@H]1CC[C@@H](n2c(=O)n(C)c3cnc4[nH]c(-c5ccc(CN(C)C)cc5)c(-c5ccc(F)cc5)c4c32)C1` [Example 28, Methyl ((1R,3R)-3-(7-(4-((dimethylamino)methyl)phenyl)-8-(4-fluorophenyl)-3-methyl-2-oxo-3,6-dihydroimidazo[4,5-d]pyrrolo[2,3-b]pyridin-1(2H)-yl)cyclopentyl)carbamate], the “TDI 3A4” value (CYP3A4) is reported as “⋄ (≤0.005)”.

For `[2H]C([2H])([2H])n1c(=O)n([C@@H]2CC[C@@H](NC(=O)OC)C2)c2c3c(-c4ccc5c(c4)COC5(C)C)c(-c4ccc(C(=O)N(C)C)cc4)[nH]c3ncc21` [Example 30, methyl ((1R,3R)-3-(8-(1,1-dimethyl-1,3-dihydroisobenzofuran-5-yl)-7-(4-(dimethylcarbamoyl)phenyl)-3-(methyl-d3)-2-oxo-3,6-dihydroimidazo[4,5-d]pyrrolo[2,3-b]pyridin-1(2H)-yl)cyclopentyl)carbamate], the “TDI 3A4” value (CYP3A4) was “⋄⋄ (>0.005 to ≤0.02)”.

With `[2H]C([2H])([2H])n1c(=O)n([C@@H]2CC[C@@H](NC(=O)OC)C2)c2c3c(-c4ccc5c(cnn5C(C)C)c4)c(-c4ccc(CN(C)C)cc4)[nH]c3ncc21` [Example 26, Methyl ((1R,3R)-3-(7-(4-((dimethylamino)methyl)phenyl)-8-(1-isopropyl-1H-indazol-5-yl)-3-(methyl-d3)-2-oxo-3,6-dihydroimidazo[4,5-d]pyrrolo[2,3-b]pyridin-1(2H)-yl)cyclopentyl)carbamate] the “TDI 3A4” value (CYP3A4) was “⋄ (≤0.005)” and the AUC [1, 3] was 0.5 to 1.5 µM·h.

In the case of `COc1nn(C)cc1-c1[nH]c2ncc3c(c2c1-c1ccc2c(cnn2C)c1)n(C1CCOCC1)c(=O)n3C` [Comparative Example A, reference compound], the “TDI 3A4” value (CYP3A4) is reported as “⋄⋄⋄⋄ (≥0.04)”, the CYP function remaining (CYP3A4) is reported as “about 30%” and the Kobs (CYP3A4) is reported as “around 0.04”. The AUC [2] was greater than 1.5 µM·h and the AUC [1, 3] was no more than 0.5 µM·h.

For `COc1nn(C)cc1-c1[nH]c2ncc3c(c2c1-c1ccc2c(cnn2C)c1)n([C@H]1CC[C@@H](CC#N)CC1)c(=O)n3C` [E, reference compound], the AUC [2] was greater than 1.5 µM·h.

In the case of `[2H]C([2H])([2H])n1ncc2cc(-c3c(-c4cn(C)nc4OC)[nH]c4ncc5c(c34)n(C3CCOCC3)c(=O)n5C)ccc21` [Comparative Example B, reference compound], the “TDI 3A4” value (CYP3A4) is reported as “⋄⋄⋄⋄ (≥0.04)”, the CYP function remaining (CYP3A4) is reported as “about 30%” and the Kobs (CYP3A4) is reported as “around 0.04”. The AUC [1, 3] was no more than 0.5 µM·h.
